Measured values taken from US8779005B2, “Salts of desvenlafaxine and a method of their preparation” (Zentiva k.s., priority 2009, dated 2014).

Legend:
[1] = Measurement of the dissolution rate (USP Wood Apparatus, rotary disk method); type: physicochemical; conditions: for Dissolution rate constants at pH 2: pH 2 (0.01 M HCl), 37° C.; for Dissolution rate constants at pH 2 / Dissolution rate constants at pH 6.8: rotary disk; for Dissolution rate constants at pH 6.8: phosphate buffer of pH 6.8, 37° C.
Description: Measurement of the Dissolution Rate The dissolution rate of desvenlafaxine salts (Table 2) in water at various pH values was measured in a Varian-Vankel System, USP Wood Apparatus (rotary disk method). A disk with the diameter of 5 mm was prepared by compression from about 0.2 g of the substance.

[2] = Measurement of equilibrium solubility; conditions: 24-hour stirring; for Equilibrium solubility at pH 2: pH 2 (0.01 M HCl), 25° C.; for Equilibrium solubility at pH 6.8: phosphate buffer of pH 6.8, 25° C.; for solubility thermodynamic at 24 h: 25 °C, thermodynamic from solid
[3] = in vivo; cited from earlier work
[4] = dihydrate, Hemioxalate Trihydrate
[5] = 0.01 M HCl, pH 2, simulated gastric fluid, Equilibrium solubility at pH 2, pH 2 (0.01 M HCl)
[6] = phosphate buffer, pH 6.8, aqueous buffer, Equilibrium solubility at pH 6.8, phosphate buffer of pH 6.8, 25° C.

Row | Dissolution rate constants at pH 2 [1] | Dissolution rate constants at pH 6.8 [1] | Equilibrium solubility at pH 2 [2] | Equilibrium solubility at pH 6.8 [2] | Dissolution rate constants at pH 2 ([1]; Hemioxalate Trihydrate) | Dissolution rate constants at pH 6.8 ([1]; Hemioxalate Trihydrate) | Equilibrium solubility at pH 2 [2, 4] | Equilibrium solubility at pH 6.8 [2, 4] | solubility thermodynamic at 24 h [2, 5] | solubility thermodynamic at 24 h [2, 6] | Dissolution speed in water relative to hydrogen fumarate ([1]; in water, compared with hydrogen fumarate) | Structure (SMILES) | Biological availability (absorption of desvenlafaxine in rat intestine) relative to hydrogen fumarate [3]
1 | 6.6 mg/cm^2/min | 5.9 mg/cm^2/min | 92 mg/ml | 80 mg/ml | – | – | – | – | – | – | – | CN(C)CC(c1ccc(O)cc1)C1(O)CCCCC1 (centres unmarked) [Hemioxalate, anhydrous, Anhydrous Desvenlafaxine Hemioxalate] | –
2 | 0.8 mg/cm^2/min | 0.8 mg/cm^2/min | – | – | – | – | – | – | 8 mg/mL | 8 mg/mL | – | CN(C)CC(c1ccc(O)cc1)C1(O)CCCCC1.O=C(O)/C=C/C(=O)O (centres unmarked) [Hydrogen fumarate hydrate, Desvenlafaxine hydrogen fumarate] | –
3 | 7.1 mg/cm^2/min | 6.0 mg/cm^2/min | – | – | – | – | – | – | 89 mg/mL | 63 mg/mL | – | CN(C)CC(c1ccc(O)cc1)C1(O)CCCCC1.O=C(O)C(=O)O (centres unmarked) [Hydrogen oxalate hydrate, Desvenlafaxine Hydrogen Oxalate Hydrate] | –

Continued, molecule first:

Row | Structure (SMILES) | Dissolution rate constants at pH 2 [1] | Dissolution rate constants at pH 6.8 [1] | Equilibrium solubility at pH 2 [2] | Equilibrium solubility at pH 6.8 [2] | Dissolution rate constants at pH 2 ([1]; Hemioxalate Trihydrate) | Dissolution rate constants at pH 6.8 ([1]; Hemioxalate Trihydrate) | Equilibrium solubility at pH 2 [2, 4] | Equilibrium solubility at pH 6.8 [2, 4] | solubility thermodynamic at 24 h [2, 5] | solubility thermodynamic at 24 h [2, 6] | Dissolution speed in water relative to hydrogen fumarate ([1]; in water, compared with hydrogen fumarate) | Biological availability (absorption of desvenlafaxine in rat intestine) relative to hydrogen fumarate [3]
4 | CN(C)CC(c1ccc(O)cc1)C1(O)CCCCC1 (centres unmarked) [Base, Desvenlafaxine] | 0.6 mg/cm^2/min | 0.2 mg/cm^2/min | 2 mg/ml | 4 mg/ml | – | – | – | – | – | – | – | –
5 | CN(C)CC(c1ccc(O)cc1)C1(O)CCCCC1 (centres unmarked) [Hemioxalate, hydrate, Desvenlafaxine Hemioxalate Trihydrate] | – | – | – | – | >10 mg/cm^2/min | >10 mg/cm^2/min | 86 mg/ml | 71 mg/ml | – | – | – | –
6 | CN(C)CC(c1ccc(O)cc1)C1(O)CCCCC1.O=C(O)CCC(=O)O (centres unmarked) [Hydrogen succinate hydrate, Desvenlafaxine hydrogen succinate] | 3.1 mg/cm^2/min | 3.2 mg/cm^2/min | – | – | – | – | – | – | 53 mg/mL | 58 mg/mL | approximately twice as fast | roughly three times higher
